Data: PubChem BioAssay (NCI)
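Tested at 5 concentrations; 48 h exposure; 96-well plates; endpoints linearly interpolated, else capped at highest concentration. GI50 is the concentration that inhibits growth by half. At the TGI there is no net growth.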

How the values were obtained:
Assay in all cases: NCI-60 cell line screen, 48 h
K-562 leukemia = test system: K-562 leukemia
SNB-19 CNS = test system: SNB-19 CNS
NCI-H226 lung = test system: NCI-H226 lung
NCI-H23 lung = test system: NCI-H23 lung
OVCAR-3 ovarian = test system: OVCAR-3 ovarian
UO-31 renal = test system: UO-31 renal
SR leukemia = test system: SR leukemia
PC-3 prostate = test system: PC-3 prostate
BT-549 breast = test system: BT-549 breast
T-47D breast = test system: T-47D breast

Row | SMILES | TGI (K-562 leukemia) | TGI (SNB-19 CNS) | TGI (NCI-H226 lung) | TGI (NCI-H23 lung) | TGI (OVCAR-3 ovarian) | TGI (UO-31 renal) | TGI (SR leukemia) | TGI (PC-3 prostate) | TGI (BT-549 breast) | TGI (T-47D breast) | GI50 (K-562 leukemia) | GI50 (SNB-19 CNS) | GI50 (NCI-H226 lung) | GI50 (NCI-H23 lung) | GI50 (PC-3 prostate) | GI50 (OVCAR-3 ovarian) | GI50 (UO-31 renal) | GI50 (BT-549 breast) | GI50 (SR leukemia) | GI50 (T-47D breast)
1 | COc1ccccc1NC(=O)CC(=O)n1nc(C)c(N=Nc2ccccc2F)c1C | > 31.6 µM | > 100 µM | > 100 µM | > 100 µM | > 100 µM | > 100 µM | > 100 µM |  |  |  |  |  |  |  |  |  |  |  |  | 
2 | CCCOc1ccc(/C=C\c2cc(OC)c(OC)c(OC)c2)cc1 | > 100 µM | > 100 µM | > 100 µM |  | > 100 µM | > 100 µM |  |  |  |  |  |  |  |  |  |  |  |  |  | 
3 | CCCCOC(=O)/C(CC(=O)C=C(C)C)=N\NS(=O)(=O)c1ccc(C)cc1 | > 100 µM | > 100 µM | > 100 µM | > 100 µM | > 100 µM | > 100 µM | 71.8 µM |  |  |  |  |  |  |  |  |  |  |  |  | 
4 | CC1CCC2(OC1)OC1CC3C4CC=C5CC(OC6OC(CO)C(OC7OC(C)C(OC8OC(C)C(O)C(O)C8O)C(O)C7O)C(O)C6OC6OC(C)C(O)C(O)C6O)CCC5(C)C4CCC3(C)C1C2C (configuration not stated) |  | 2.4 µM | 2.86 µM | 3.13 µM | 3.31 µM | 1.67 µM |  | 2.08 µM | 3.07 µM | 2.89 µM |  |  |  |  |  |  |  |  |  | 
5 | Nc1cc(N)c2nc(-c3ccccc3)c(Nc3ccc(F)cc3)nc2c1 | > 100 µM | 40 µM | 47.5 µM | 49.1 µM | 17.8 µM | 61.4 µM | > 100 µM | > 100 µM | 27.2 µM |  | 4.97 µM | 22.1 µM | 17.9 µM | 22.5 µM | 11.7 µM | 4.66 µM | 16.9 µM | 11.9 µM | 5.36 µM | 
6 | CCCCCCCCCCCCCCCCC(C(=O)O)C(O)(CC(=O)O)C(=O)O (configuration not stated) | > 100 µM | 79.3 µM | 47.3 µM | 64.6 µM | 35.8 µM | 45.4 µM | 81 µM | 38.8 µM | 51.3 µM |  |  |  |  |  |  |  |  |  |  | 
7 | CC(=O)/C=C1/c2ccccc2N(C(C)=O)C1O (configuration not stated) | > 100 µM | > 100 µM |  | > 100 µM | > 100 µM | > 100 µM | > 100 µM |  |  |  |  |  |  |  |  |  |  |  |  | 
8 | Cc1ccccc1C(C#N)/C(=N/NC(=O)c1cc2ccccc2cc1O)C(=O)Nc1cccc(Cl)c1 (configuration not stated) | > 100 µM | > 100 µM | 78.4 µM | 51.2 µM | 92.7 µM | 8.4 µM | 84.5 µM |  |  |  |  |  |  |  |  |  |  |  |  | 
9 | COc1n[n+]([O-])c(C)cc1[N+](=O)[O-] |  |  | 63.3 µM | 30.3 µM | 28.4 µM | 25.4 µM | 31.2 µM | 32.6 µM | 33.2 µM |  |  |  | 24.4 µM | 14.8 µM | 15.9 µM | 8.44 µM | 12.6 µM | 18.9 µM | 11.1 µM | 
10 | O=C(O)Cc1cc(=O)oc2cc(O)c(Cl)cc12 | > 100 µM | > 100 µM | > 100 µM | > 100 µM | > 100 µM |  |  |  |  |  |  |  |  |  |  |  |  |  |  | 
11 | COC(=O)c1c/c(=N\NC(=O)CC(=O)Nc2ccccc2Cl)c2ccccc2o1 | > 100 µM | > 100 µM | > 100 µM | > 100 µM | > 100 µM | > 100 µM | > 100 µM |  |  |  |  |  |  |  |  |  |  |  |  | 
12 | CCCOc1ccc(/C=C/c2cc(OC)c(OC)c(OC)c2)cc1 | > 100 µM | > 100 µM | 2.54 µM | 0.706 µM |  | > 100 µM | 31.2 µM |  |  |  |  |  |  |  |  |  |  |  |  | 
13 | Clc1nc(Cl)c2ncn(C/C=C\Cn3cnc4c(Cl)nc(Cl)nc43)c2n1 | > 100 µM | 10.1 µM | 6.23 µM | 5.11 µM | 2.69 µM | 10.3 µM |  | 4.54 µM | 5.01 µM | 2.79 µM | 3.1 µM | 3.13 µM | 2.53 µM | 2.09 µM | 2.05 µM | 1.37 µM | 3.38 µM | 2.03 µM |  | 0.951 µM
14 | C[C@]12CC[C@H]3[C@@H](CC=C4C[C@@H](O)CC[C@@]43C)[C@@H]1C/C(=C\c1cccc(OCCN3CCOCC3)c1)[C@@H]2O | 40.8 µM | > 100 µM | > 100 µM | > 100 µM | > 100 µM | > 100 µM |  | > 100 µM | 95.1 µM | > 100 µM | 11.6 µM | > 100 µM | > 100 µM | 48.5 µM | 27.4 µM | > 100 µM | 33.5 µM | 27 µM |  | 6.46 µM
15 | COC(=O)c1nc(-c2ccc(Cl)c(Cl)c2)nc2ccccc12 | > 100 µM | 79.5 µM | 78.1 µM | > 100 µM | > 100 µM | > 100 µM |  |  |  |  |  |  |  |  |  |  |  |  |  | 
16 | CCCCCCN1C(=O)/C(=c2\sc3n(c2=O)C2C(NN=3)N(CC)C(=O)N2CC)c2ccccc21 (configuration not stated) | > 50 µM | > 50 µM |  | > 50 µM | 2.06 µM | > 50 µM | > 50 µM | > 50 µM | > 50 µM | > 50 µM | 1.89 µM | 3.03 µM |  | 2.05 µM | 2.48 µM | 0.966 µM | 1.43 µM | 6.34 µM | 1.73 µM | 1.66 µM
17 | CCNC(=O)C(O)C1(O)CCC2[C@@H]3CCC4=CC(=O)C=C[C@]4(C)C3[C@@H](O)C[C@@]21C (some centres not stated) | > 100 µM | > 100 µM | > 100 µM | > 100 µM | > 100 µM | > 100 µM | > 100 µM |  |  |  |  |  |  |  |  |  |  |  |  | 
18 | N#CCCc1nc2ccc(Br)cc2c(=O)n1-c1ccc(O)c([N+](=O)[O-])c1 | 61.9 µM |  | 43.3 µM | 42 µM | 41.4 µM | 78.9 µM |  |  |  |  |  |  |  |  |  |  |  |  |  | 
19 | Clc1ccc(C2=Nc3ccccc3SC(c3ccc(Cl)c(Cl)c3)C2)c(Cl)c1 (configuration not stated) | 22.3 µM | 40 µM | 37.4 µM | 34.2 µM | 26.1 µM | 28.1 µM |  |  |  |  |  |  |  |  |  |  |  |  |  | 
20 | O=[N+]([O-])c1ccc(Cc2nc3ccccc3s2)cc1 | > 100 µM | > 100 µM | > 100 µM | > 100 µM | > 100 µM | > 100 µM | > 100 µM |  |  |  |  |  |  |  |  |  |  |  |  | 
21 | CSC(=S)N(C)c1nc(=[N+](C)C)ss1 | > 100 µM | > 100 µM | > 100 µM | > 100 µM |  | > 100 µM | > 100 µM |  |  |  |  |  |  |  |  |  |  |  |  | 
22 | O=S(=O)(O)C(F)(F)C(F)(F)C(F)(F)C(F)(F)F | > 100 µM | > 100 µM |  | > 100 µM | > 100 µM | > 100 µM |  |  |  |  |  |  |  |  |  |  |  |  |  | 
23 | Cc1ccc2sc3cc(=O)cc(C)c-3nc2c1 | > 100 µM | > 100 µM | > 100 µM | > 100 µM | > 100 µM | > 100 µM | > 100 µM |  |  |  |  |  |  |  |  |  |  |  |  | 
